ChEMBL document CHEMBL1149013, “Antitumor agents, 82. Cytotoxic sapogenols from Aesculus hippocastanum” (1986)
≈ marks a conversion by molar mass, not a printed value. Calls of active or inactive are those of the source. The calls are words filed in the database; no cut-off is given here.

Tested on: KB
Test: Cytotoxicity against human KB cells
Format: functional
Details: for EC50: read-out: ED50 (the source's name)

CC1(C)C[C@H]2C3=CC[C@@H]4[C@@]5(C)CC[C@H](O)C(C)(C)[C@@H]5CC[C@@]4(C)[C@]3(C)C[C@@H](O)[C@@]2(CO)[C@@H](O)[C@@H]1O
Activity: inactive

CC1(C)OC[C@@]23[C@@H]4OC(C)(C)O[C@@H]4[C@]4(C)C(=CC[C@@H]5[C@@]6(C)CC[C@H](O)C(C)(C)[C@@H]6CC[C@]54C)[C@@H]2CC(C)(C)[C@@H](O)[C@@H]3O1
EC50: 4 µg/mL (≈ 6.82 µM)

C/C=C(/C)C(=O)O[C@H]1[C@H](OC(=O)/C(C)=C/C)C(C)(C)C[C@H]2C3=CC[C@@H]4[C@@]5(C)CC[C@H](O)C(C)(C)[C@@H]5CC[C@@]4(C)[C@]3(C)[C@@H](O)[C@@H](O)[C@]21CO [HIPPOCAESCULIN]
EC50: 3.6 µg/mL (≈ 5.37 µM)

CC1(C)C[C@H]2C3=CC[C@@H]4[C@@]5(C)CC[C@H](O)C(C)(C)[C@@H]5CC[C@@]4(C)[C@]3(C)[C@@H](O)[C@@H](O)[C@@]2(CO)[C@@H](O)[C@@H]1O
Activity: inactive

C/C=C(/C)C(=O)O[C@H]1[C@H](O)[C@]2(CO)[C@H](O)C[C@]3(C)C(=CC[C@@H]4[C@@]5(C)CC[C@H](O)C(C)(C)[C@@H]5CC[C@]43C)[C@@H]2CC1(C)C
EC50: 3 µg/mL (≈ 5.24 µM)
